The values below come from article PMC11062922 (Nature Chemical Biology, 2023).

One assay concerns the target T1, EPHB4 (Homo sapiens, UniProt P54760).
T1 construct: endogenous in cells
T1 sequence (P54760 16-987): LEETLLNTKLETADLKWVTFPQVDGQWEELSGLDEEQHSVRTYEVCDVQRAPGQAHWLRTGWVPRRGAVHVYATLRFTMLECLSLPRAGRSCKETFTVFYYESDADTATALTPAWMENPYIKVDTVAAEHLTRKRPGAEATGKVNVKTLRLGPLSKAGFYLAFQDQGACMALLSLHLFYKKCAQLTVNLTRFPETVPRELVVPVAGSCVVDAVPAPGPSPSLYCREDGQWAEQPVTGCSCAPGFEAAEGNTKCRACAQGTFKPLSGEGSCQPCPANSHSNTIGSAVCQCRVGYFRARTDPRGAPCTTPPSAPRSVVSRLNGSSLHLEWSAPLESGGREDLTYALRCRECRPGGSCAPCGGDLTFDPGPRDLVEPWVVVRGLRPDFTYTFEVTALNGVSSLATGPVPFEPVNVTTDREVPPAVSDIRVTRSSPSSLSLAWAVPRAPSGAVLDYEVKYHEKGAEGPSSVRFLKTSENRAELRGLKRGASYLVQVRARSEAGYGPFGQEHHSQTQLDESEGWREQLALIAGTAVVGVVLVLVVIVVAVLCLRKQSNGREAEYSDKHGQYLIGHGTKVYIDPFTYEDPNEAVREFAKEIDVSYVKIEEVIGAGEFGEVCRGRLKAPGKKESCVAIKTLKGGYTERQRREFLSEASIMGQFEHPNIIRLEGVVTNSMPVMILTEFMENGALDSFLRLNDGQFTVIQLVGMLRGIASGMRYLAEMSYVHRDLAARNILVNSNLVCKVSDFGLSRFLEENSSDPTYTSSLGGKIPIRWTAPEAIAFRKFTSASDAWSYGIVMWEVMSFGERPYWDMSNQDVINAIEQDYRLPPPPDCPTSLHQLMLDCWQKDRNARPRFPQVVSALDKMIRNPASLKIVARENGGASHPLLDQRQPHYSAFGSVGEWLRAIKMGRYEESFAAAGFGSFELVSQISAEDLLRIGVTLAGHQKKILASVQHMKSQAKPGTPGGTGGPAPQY
The assay can be described thus: Kinobeads two-dose competition binding: EPHB4. The conditions noted are these: read-out: Lestaurtinib Drugmatrix value, Gene Name EPHB4; target EPHB4; each column = one Lestaurtinib control replicate (batch_R1-R3).

Another assay addresses T2, CSNK1E (Homo sapiens, UniProt P49674).
T2 construct: endogenous in cells
The assay can be described thus: Kinobeads full dose-response competition binding: CSNK1E. The conditions noted are these: Gene Name CSNK1E.

Another assay concerns the target T3, MAPK14 (Homo sapiens, UniProt Q16539).
T3 construct: endogenous in cells
The assay can be described thus: Kinobeads full dose-response competition binding: MAPK14. Conditions: Gene Name MAPK14.

For assay [1], the target named is T4, endogenous kinases and other proteins enriched by Kinobeads from mixed cancer cell lysates (Homo sapiens, UniProt O60285).
T4 construct: endogenous in cells
The assay can be described thus: Kinobeads pulldown, full dose-response (eight doses).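 Note: competition with Kinobeads ε after inhibitor preincubation in lysate (5 mg/ml protein) for 45 min at 4 °C, DMSO control, doses 0.3–1,000 nM, label-free LC–MS/MS quantification.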 It counts as binding. Conditions: target NUAK1.

Assay [2] concerns the target T5, endogenous kinases and other proteins enriched by Kinobeads from mixed cancer cell lysates (Homo sapiens, UniProt P51946).
T5 construct: endogenous in cells
The assay is described as above. Conditions: target CCNH. The format is binding.

For assay [3], the target named is T6, endogenous kinases and other proteins enriched by Kinobeads from mixed cancer cell lysates (Homo sapiens, UniProt Q15375).
T6 construct: endogenous in cells
T6 sequence (Q15375 28-998): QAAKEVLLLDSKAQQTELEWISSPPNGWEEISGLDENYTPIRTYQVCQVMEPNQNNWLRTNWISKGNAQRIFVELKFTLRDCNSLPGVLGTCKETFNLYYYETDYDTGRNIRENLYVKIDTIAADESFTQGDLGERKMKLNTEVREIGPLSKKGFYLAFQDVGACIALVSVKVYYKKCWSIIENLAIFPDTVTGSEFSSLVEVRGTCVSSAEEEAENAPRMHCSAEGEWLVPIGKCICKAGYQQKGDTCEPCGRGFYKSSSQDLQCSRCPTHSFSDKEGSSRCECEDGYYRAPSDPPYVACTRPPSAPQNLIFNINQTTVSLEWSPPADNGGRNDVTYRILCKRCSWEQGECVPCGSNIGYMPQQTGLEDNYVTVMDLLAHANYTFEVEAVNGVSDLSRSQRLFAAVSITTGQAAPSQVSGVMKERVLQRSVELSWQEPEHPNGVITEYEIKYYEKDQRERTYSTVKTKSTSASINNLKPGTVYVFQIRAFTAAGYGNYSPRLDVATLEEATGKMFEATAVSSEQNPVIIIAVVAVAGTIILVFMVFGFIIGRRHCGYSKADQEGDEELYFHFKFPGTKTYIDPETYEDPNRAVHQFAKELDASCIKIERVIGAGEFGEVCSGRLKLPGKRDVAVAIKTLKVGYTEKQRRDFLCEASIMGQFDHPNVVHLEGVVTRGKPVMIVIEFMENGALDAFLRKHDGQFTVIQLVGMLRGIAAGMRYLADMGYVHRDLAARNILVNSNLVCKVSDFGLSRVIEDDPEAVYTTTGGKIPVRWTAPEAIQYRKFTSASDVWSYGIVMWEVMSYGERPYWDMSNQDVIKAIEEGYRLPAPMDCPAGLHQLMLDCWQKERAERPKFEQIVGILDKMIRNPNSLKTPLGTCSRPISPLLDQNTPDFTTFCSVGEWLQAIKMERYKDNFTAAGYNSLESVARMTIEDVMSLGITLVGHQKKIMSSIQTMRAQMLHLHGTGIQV
The assay is described as above. It counts as binding. The conditions noted are these: target EPHA7.

For assay [4], the target named is T7, endogenous kinases and other proteins enriched by Kinobeads from mixed cancer cell lysates (Homo sapiens, UniProt Q2M2I8).
T7 construct: to maximize the representation of endogenous proteins; endogenous in cells
The description is as above. Conditions: target AAK1. The format is binding.

In assay [5] the target is T8, endogenous kinases and other proteins enriched by Kinobeads from mixed cancer cell lysates (Homo sapiens, UniProt Q7KZI7).
T8 construct: endogenous in cells
The description is as above. The format is binding. Conditions: target MARK2.

Assay [6] concerns the target T9, endogenous kinases and other proteins enriched by Kinobeads from mixed cancer cell lysates (Homo sapiens, UniProt Q96GD4).
T9 construct: endogenous in cells
The assay is described as above. It counts as binding. Conditions: target AURKB.

Assay [7] concerns the target T10, endogenous kinases and other proteins enriched by Kinobeads from mixed cancer cell lysates (Homo sapiens, UniProt Q96L34).
T10 construct: endogenous in cells
The assay is described as above. The format is binding. Conditions: target MARK4.

Assay [8] deals with T11, endogenous kinases and other proteins enriched by Kinobeads from mixed cancer cell lysates (Homo sapiens, UniProt Q9H0K1).
T11 construct: endogenous in cells
The assay is described as above. The conditions noted are these: target SIK2. The format is binding.

Assay [9] concerns the target T12, endogenous kinases and other proteins enriched by Kinobeads from mixed cancer cell lysates (Homo sapiens, UniProt Q9H2G2).
T12 construct: endogenous in cells
The assay is described as above. The format is binding. Conditions: target SLK.

Assay [10] addresses T13, endogenous kinases and other proteins enriched by Kinobeads from mixed cancer cell lysates (Homo sapiens, UniProt Q9NQS7).
T13 construct: endogenous in cells
The description is as above. It counts as binding. Conditions: target INCENP.

For assay [11], the target named is T14, endogenous kinases and other proteins enriched by Kinobeads from mixed cancer cell lysates (Homo sapiens, UniProt Q9NSY1).
T14 construct: endogenous in cells
Described as above. The format is binding. The conditions noted are these: target BMP2K.

Assay [12] concerns the target T15, endogenous kinases and other proteins enriched by Kinobeads from mixed cancer cell lysates (Homo sapiens, UniProt Q9NWZ3).
T15 construct: endogenous in cells
Described as above. It counts as binding. Conditions: target IRAK4.

Another assay deals with T16, PRKCQ (Homo sapiens, UniProt Q04759).
T16 construct: to maximize the representation of endogenous proteins; endogenous in cells
T16 sequence (Q04759 whole entry): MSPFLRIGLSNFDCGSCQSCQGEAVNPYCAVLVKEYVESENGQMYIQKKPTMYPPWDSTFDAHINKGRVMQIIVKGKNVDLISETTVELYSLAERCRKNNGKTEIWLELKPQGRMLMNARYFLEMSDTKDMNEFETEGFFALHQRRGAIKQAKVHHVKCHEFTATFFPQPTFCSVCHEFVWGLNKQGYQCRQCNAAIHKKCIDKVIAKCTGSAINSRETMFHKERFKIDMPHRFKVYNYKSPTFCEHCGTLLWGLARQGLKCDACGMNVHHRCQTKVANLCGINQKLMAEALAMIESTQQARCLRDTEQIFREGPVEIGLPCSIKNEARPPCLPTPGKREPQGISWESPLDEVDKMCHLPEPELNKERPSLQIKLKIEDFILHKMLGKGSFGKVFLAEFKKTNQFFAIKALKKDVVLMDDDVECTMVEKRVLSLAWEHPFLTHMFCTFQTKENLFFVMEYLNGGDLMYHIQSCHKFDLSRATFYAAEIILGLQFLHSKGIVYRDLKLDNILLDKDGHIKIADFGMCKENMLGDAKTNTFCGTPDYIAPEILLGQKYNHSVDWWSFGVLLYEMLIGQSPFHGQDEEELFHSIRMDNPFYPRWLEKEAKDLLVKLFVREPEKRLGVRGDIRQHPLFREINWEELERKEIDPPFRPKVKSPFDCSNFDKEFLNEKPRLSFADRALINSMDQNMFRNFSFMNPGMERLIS
Nature of the assay: Kinobeads full dose-response competition binding: PRKCQ. Conditions: Gene Name PRKCQ.

Setting [13] is: EC50 with Correction, doses in nM, read-out: apparent Kd.
The mark [14] stands for this setting: eight-dose curve fit, doses in nM.

The structures appear in SMILES notation. Several values for one entry are separate records, joined by “and”; a condition that tells them apart may be missing. Equal entries are not always repeated.

T2 sequence (P49674 whole entry): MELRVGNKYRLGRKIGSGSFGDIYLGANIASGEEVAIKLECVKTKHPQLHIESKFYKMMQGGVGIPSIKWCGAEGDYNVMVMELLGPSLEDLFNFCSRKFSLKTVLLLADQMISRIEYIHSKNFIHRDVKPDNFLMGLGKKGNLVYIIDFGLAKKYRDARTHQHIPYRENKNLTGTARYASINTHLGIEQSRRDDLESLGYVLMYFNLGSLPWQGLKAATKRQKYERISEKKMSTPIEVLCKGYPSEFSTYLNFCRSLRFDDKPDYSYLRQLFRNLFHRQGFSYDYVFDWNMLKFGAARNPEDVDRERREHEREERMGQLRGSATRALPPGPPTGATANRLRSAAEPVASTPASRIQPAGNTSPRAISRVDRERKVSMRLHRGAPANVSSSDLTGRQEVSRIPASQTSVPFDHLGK
T3 sequence (Q16539 whole entry): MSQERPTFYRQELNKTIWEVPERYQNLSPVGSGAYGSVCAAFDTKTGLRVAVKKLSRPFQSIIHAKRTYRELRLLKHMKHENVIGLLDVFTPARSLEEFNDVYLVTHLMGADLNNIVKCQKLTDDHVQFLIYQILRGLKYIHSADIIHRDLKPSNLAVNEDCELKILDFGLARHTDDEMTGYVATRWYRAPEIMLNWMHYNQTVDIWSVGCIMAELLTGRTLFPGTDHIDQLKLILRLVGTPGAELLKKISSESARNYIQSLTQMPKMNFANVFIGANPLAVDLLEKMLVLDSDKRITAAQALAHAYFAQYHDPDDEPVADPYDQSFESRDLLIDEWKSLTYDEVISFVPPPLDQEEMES
T5 sequence (P51946 whole entry): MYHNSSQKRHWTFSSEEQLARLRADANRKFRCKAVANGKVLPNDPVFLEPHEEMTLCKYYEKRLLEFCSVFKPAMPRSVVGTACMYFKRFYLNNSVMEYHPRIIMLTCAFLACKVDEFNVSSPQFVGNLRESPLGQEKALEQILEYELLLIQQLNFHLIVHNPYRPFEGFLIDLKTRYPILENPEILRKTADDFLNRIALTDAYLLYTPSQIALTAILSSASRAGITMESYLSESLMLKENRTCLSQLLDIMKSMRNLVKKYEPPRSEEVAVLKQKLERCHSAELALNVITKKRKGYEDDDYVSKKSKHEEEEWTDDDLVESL
T13 sequence (Q9NQS7 whole entry): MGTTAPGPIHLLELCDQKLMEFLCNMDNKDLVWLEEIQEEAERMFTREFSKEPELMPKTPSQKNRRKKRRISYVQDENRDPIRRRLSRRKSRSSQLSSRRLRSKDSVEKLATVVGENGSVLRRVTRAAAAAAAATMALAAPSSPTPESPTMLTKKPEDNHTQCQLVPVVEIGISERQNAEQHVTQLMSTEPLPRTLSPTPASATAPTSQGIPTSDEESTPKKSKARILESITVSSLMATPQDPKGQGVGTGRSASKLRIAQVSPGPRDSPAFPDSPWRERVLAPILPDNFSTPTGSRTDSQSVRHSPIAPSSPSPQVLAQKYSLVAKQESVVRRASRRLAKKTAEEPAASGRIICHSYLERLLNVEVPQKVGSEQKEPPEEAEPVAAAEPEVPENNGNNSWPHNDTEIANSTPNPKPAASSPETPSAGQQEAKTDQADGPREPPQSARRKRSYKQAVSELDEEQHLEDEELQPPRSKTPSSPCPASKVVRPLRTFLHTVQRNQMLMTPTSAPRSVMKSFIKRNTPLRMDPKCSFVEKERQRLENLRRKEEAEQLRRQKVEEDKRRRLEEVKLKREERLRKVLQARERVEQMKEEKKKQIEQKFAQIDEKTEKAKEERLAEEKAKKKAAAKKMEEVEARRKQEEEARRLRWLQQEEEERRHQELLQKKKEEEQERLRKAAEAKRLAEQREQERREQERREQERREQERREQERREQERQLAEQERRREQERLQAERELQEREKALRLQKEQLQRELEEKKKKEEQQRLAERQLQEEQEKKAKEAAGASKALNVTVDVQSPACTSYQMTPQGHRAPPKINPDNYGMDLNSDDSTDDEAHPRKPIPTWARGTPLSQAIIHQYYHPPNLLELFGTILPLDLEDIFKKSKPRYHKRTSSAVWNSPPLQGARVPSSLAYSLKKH
T15 sequence (Q9NWZ3 whole entry): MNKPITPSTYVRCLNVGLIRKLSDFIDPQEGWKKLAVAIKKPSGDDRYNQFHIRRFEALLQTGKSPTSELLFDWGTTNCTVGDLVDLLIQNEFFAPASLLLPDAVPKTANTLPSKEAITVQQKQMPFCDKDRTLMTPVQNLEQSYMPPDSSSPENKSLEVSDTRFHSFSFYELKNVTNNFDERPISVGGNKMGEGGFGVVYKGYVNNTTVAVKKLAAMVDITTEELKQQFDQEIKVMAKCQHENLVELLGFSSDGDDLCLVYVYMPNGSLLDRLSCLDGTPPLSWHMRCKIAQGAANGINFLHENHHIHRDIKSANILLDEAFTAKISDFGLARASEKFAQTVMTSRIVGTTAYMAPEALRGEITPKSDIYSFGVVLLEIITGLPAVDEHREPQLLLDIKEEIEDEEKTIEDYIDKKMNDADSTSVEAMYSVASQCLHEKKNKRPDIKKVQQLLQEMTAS
T10 sequence (Q96L34 whole entry): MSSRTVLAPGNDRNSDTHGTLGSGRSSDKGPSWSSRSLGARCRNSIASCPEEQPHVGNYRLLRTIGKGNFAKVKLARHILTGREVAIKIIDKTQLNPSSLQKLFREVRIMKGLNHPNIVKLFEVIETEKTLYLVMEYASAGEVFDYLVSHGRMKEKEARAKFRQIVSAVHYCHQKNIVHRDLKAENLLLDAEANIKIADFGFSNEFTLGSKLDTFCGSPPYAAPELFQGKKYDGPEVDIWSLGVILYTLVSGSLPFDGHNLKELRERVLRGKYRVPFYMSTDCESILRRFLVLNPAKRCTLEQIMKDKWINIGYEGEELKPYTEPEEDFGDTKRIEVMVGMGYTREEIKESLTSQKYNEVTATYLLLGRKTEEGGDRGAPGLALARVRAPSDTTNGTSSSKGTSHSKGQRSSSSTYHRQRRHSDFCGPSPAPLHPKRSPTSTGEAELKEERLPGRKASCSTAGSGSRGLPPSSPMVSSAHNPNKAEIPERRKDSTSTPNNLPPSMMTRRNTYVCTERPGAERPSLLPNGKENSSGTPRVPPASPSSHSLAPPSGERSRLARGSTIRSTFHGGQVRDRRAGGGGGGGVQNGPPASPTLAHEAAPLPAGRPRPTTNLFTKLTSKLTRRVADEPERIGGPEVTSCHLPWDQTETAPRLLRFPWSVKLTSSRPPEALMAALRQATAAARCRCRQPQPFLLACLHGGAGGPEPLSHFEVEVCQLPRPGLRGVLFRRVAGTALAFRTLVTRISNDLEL

With `C[C@]12O[C@H](C[C@]1(O)CO)n1c3ccccc3c3c4c(c5c6ccccc6n2c5c31)CNC4=O` [Lestaurtinib], the potency estimated from few doses on EPHB4 was 207 nM and 689 nM.

Usually EC50 stands for the concentration at which the effect is half-maximal. A lower EC50 goes with an effect from little substance. Consider `NCc1ccc(-c2nc(-c3ccncc3)c(-c3ccc(Cl)c(O)c3)[nH]2)cc1` [SB-476429-A], for which the “Relative Intensity 0.3nM” value at CSNK1E (0.3nM compound, DMSO = 1) is given as 1.09; on MAPK14 (0.3nM compound, DMSO = 1), 1.121. Also, the “Relative Intensity 1nM” value on CSNK1E (1nM compound, DMSO = 1) was determined as 1.082; at MAPK14 (1nM compound, DMSO = 1) it was 0.9468. The “Relative Intensity 3nM” value on CSNK1E (3nM compound, DMSO = 1) is 1.034; on MAPK14 (3nM compound, DMSO = 1), 1.026. Moreover, the “Relative Intensity 10nM” value on CSNK1E (10nM compound, DMSO = 1) is 1.047; on MAPK14 (10nM compound, DMSO = 1) it was 0.8638. In addition, the “Relative Intensity 30nM” value was 0.8419 at CSNK1E (30nM compound, DMSO = 1) and 0.6876 at MAPK14 (30nM compound, DMSO = 1). In addition, the “Relative Intensity 100nM” value on CSNK1E (100nM compound, DMSO = 1) came out at 0.9482; on MAPK14 (100nM compound, DMSO = 1), 0.6751. Further, the “Relative Intensity 300nM” value on CSNK1E (300nM compound, DMSO = 1) came out at 0.7771; at MAPK14 (300nM compound, DMSO = 1), 0.325. The “Relative Intensity 1000nM” value is recorded as 0.494 on CSNK1E (1000nM compound, DMSO = 1) and 0.2 on MAPK14 (1000nM compound, DMSO = 1). For the same compound, the Kd at CSNK1E (setting [13]) came out at 642 nM; on MAPK14 (setting [13]), 174 nM. For the same compound, the EC50 at CSNK1E (setting [14]) stood at 642 nM; at MAPK14 (setting [14]), 174 nM.

On to `Cn1cc(-c2nc(N[C@@H]3CCCC[C@@H]3N)c(F)c3c2C(=O)NC3)cn1` [TAK659], for which the EC50 was 1020 nM in [1]; 1730 nM in [2]; 810 nM in [3]; 997 nM in [4]; 837 nM in assay [5]; 161 nM in [6]. Further, the EC50 was 1050 nM in assay [7]; 260 nM in assay [8]; 516 nM in [9]; 150 nM in assay [10]; 537 nM in assay [11]; 718 nM in [12]. The Kd came out at 312 nM in [1] (read-out: apparent Kd); 1580 nM in assay [2] (read-out: apparent Kd); 617 nM in [3] (read-out: apparent Kd); 720 nM in [4] (read-out: apparent Kd); 762 nM in [5] (read-out: apparent Kd); 86.7 nM in [6] (read-out: apparent Kd). Also, the Kd is 1050 nM in [7] (read-out: apparent Kd); 140 nM in assay [8] (read-out: apparent Kd); 516 nM in [9] (read-out: apparent Kd); 150 nM in assay [10] (read-out: apparent Kd); 456 nM in [11] (read-out: apparent Kd); 675 nM in assay [12] (read-out: apparent Kd).

Regarding `CCn1c(-c2nonc2N)nc2c(C#CC(C)(C)O)nc(OCCN)cc21` [GSK902056A], the “Relative Intensity 0.3nM” value at PRKCQ (0.3nM compound, DMSO = 1) was determined as 0.9348. In addition, the “Relative Intensity 1nM” value at PRKCQ (1nM compound, DMSO = 1) turned out to be 1.037. For the same compound, the “Relative Intensity 3nM” value on PRKCQ (3nM compound, DMSO = 1) came out at 0.9215. In addition, the “Relative Intensity 10nM” value on PRKCQ (10nM compound, DMSO = 1) is 0.8429. Further, the “Relative Intensity 30nM” value on PRKCQ (30nM compound, DMSO = 1) turned out to be 0.5346. Besides, the “Relative Intensity 100nM” value at PRKCQ (100nM compound, DMSO = 1) came to 0.4204. Besides, the “Relative Intensity 300nM” value at PRKCQ (300nM compound, DMSO = 1) amounted to 0. Further, on PRKCQ (1000nM compound, DMSO = 1), the “Relative Intensity 1000nM” value was 0. Further, the Kd at PRKCQ (setting [13]) was 58.7 nM. On PRKCQ (setting [14]), it took 58.7 nM to reach a half-maximal effect (EC50).
